Experimental data reported in paper PMC7024211, “Antifouling Napyradiomycins from Marine-Derived Actinomycetes Streptomyces aculeolatus” (Marine Drugs, 2020).
≈ marks a conversion by molar mass, not a printed value.

Tests used:
M. luteus [1] = experiment: Bacterial growth inhibition assay (OD600nm); assay type: cell-based, Micrococcus luteus
Description: (§1) Five marine bacterial species were used as models to assess antimicrofouling activity. The biofilm-forming marine bacteria Marinobacter hydrocarbonoclasticus DSM 8798 (ATCC 49840), Cobetia marina DSM 4741, Phaeobacter inhibens DSM 17,395, and Pseusooceanicola batsensis DSM 15,984 were obtained from DSMZ (Leibniz Institute DSMZ—German collection of Microorganisms and Cell Cultures) and Micrococcus luteus. Cultures were routinely grown in liquid marine broth (Carl Roth GmbH, Karlsruhe, Germany) with agitation (180 rpm) or on agar-supplemented marine broth, at 28 °C (M. hydrocarbonoclasticus and C. marina) or 30 °C (P. inhibens and P. batsensis). M. luteus was maintained in Brain Heart Infusion broth (BHI, Becton Dickinson, GmbH, Heidelberg, Germany) with agitation (180 rpm) or on agar-supplemented BHI, at 37 °C.
(§2) The antibacterial activity of the napyradiomycins (1–12) was assessed in 96-well polystyrene flat bottom microplates (Nunclon Delta Surface, Thermo Scientific, Roskilde, Denmark) following previously reported procedures. […] After 24 h (M. hydrocarbonoclasticus, C. marina) or 48 h (P. batsensis, P. inhibens, M. luteus) incubation, the OD600nm was determined (Molecular Devices, Spectra Max 190). […] The percentage of growth inhibition was calculated as the amount of growth relative to that of the bacterial species without added compounds (with the same amount of DMSO added). CuSO4 (5 μM), a potent antifouling agent used in antifouling paints, was used as reference.
(§3) All assays were performed in triplicate, and results are representative of the average and standard error of the mean (SEM). Statistical analysis was performed in GraphPad Prism 8.0.2 (San Diego, CA, USA), using one-way ANOVA followed by a Dunnett’s multiple comparisons test against the control (species grown with the same amount of DMSO added).

M. hydrocarbonoclasticus [2] = experiment: Biofilm inhibition assay (crystal violet); assay type: cell-based, Marinobacter hydrocarbonoclasticus; details: Marinobacter nauticus; for inhibition at 31.25 µg/mL: read-out: % Biofilm Inhibition ± SEM M. hydrocarbonoclasticus
Procedure: (§4) In a 96-well plate, biofilm grown cultures of M. hydrocarbonoclasticus and C. marina were incubated with napyradiomycins (1–12) at a concentration of 31.25 µg/mL. After discarding the media, biofilm inhibition was determined from OD600 measurements of crystal violet stained cells resuspended from the plate bottom with acetic acid.
as §1
(§5) The antibiofilm activity of napyradiomycins (1–12) against the five marine bacterial species was assessed in 96-well polystyrene flat bottom microplates (Nunclon Delta Surface, Thermo Scientific, Roskilde, Denmark) as previously reported. For initial screening, bacterial overnight cultures were diluted to an optical density (OD600nm) value of 0.2 and incubated statically at 28 °C (M. hydrocarbonoclasticus, C. marina), 30 °C (P. inhibens, P. batsensis) or 37 °C (M. luteus) in the 96-well microplate in the presence or absence of 31.25 µg/mL of napyradiomycins, solubilized in DMSO. After 24 h (M. hydrocarbonoclasticus, C. marina) or 48 h (P. batsensis, P. inhibens, M. luteus) incubation, the OD600nm was determined. The planktonic cells and media were discarded, and the wells were washed twice with deionized water. The biofilm was fixed for 1 h at 60 °C and stained with crystal violet 0.06% for 10 min. The dye was discarded, and the wells were again washed twice with deionized water. The stained biofilm was solubilized with 30% acetic acid and the OD600nm was determined. […] The percentage of biofilm inhibition was calculated as the amount of biofilm relative to that of the bacterial species without added compounds (with the same amount of DMSO added). CuSO4 (5 μM), a potent antifouling agent used in antifouling paints, was used as reference.
as §3, with “8.0.2,” for “8.0.2 (San Diego, CA, USA),”

C. marina [3] = experiment: Biofilm inhibition assay (crystal violet); assay type: cell-based, Cobetia marina; details: 31.25 µg/mL
Procedure: as §4, §1, §5
as §3, with “8.0.2,” for “8.0.2 (San Diego, CA, USA),”

M. luteus [4] = experiment: Biofilm inhibition assay (crystal violet); assay type: cell-based, Micrococcus luteus
Procedure: as §4, §1, §5
as §3, with “8.0.2,” for “8.0.2 (San Diego, CA, USA),”

P. batsensis = experiment: Biofilm inhibition assay (crystal violet); assay type: cell-based, Pseudooceanicola batsensis; details: Pseudooceanicola batsensis; 31.25 µg/mL; read-out: % Biofilm Inhibition ± SEM P. batsensis
Procedure: as §4, §1, §5
as §3, with “8.0.2,” for “8.0.2 (San Diego, CA, USA),”

P. inhibens = experiment: Biofilm inhibition assay (crystal violet); assay type: cell-based, Phaeobacter inhibens; details: 31.25 µg/mL
Procedure: as §4, §1, §5
All assays were performed in triplicate, and results are representative of the average and standard error of the mean (SEM). […]

[5] = Mussel plantigrade larvae settlement, 15 h acute exposure assay; assay type: in vivo; details: Mytilus galloprovincialis (mussel, plantigrade larvae), in vivo, no mortality at highest tested concentration 12 µg/mL
Procedure: (§6) Mussel (M. galloprovincialis) adhesive larvae (plantigrades) were used to assess in vivo the antifouling activity of napyradiomycins (1–12) towards macrofouling. Juvenile mussel aggregates were collected at the intertidal rocky shore during low spring tides, at Memória beach, Matosinhos, Portugal (41°13′59″ N; 8°43′28″ W). At the laboratory, immediately before the bioassays, mussel plantigrade larvae were screened and isolated from the juvenile aggregates using a binocular microscope (Olympus SZX2-ILLT, Hamburg, Germany) and washed with filtered seawater to remove organic debris. Only competent plantigrade larvae (those showing foot exploratory behavior) were selected and used in the exposure bioassays following previously validated procedures. Plantigrades were exposed in 24-well polystyrene plates for 15 h in the darkness at 18 °C. DMSO was used as solvent for crude extracts, fractions and pure compounds stock and working solutions. Working solutions were prepared by successive dilutions of stock solutions in DMSO and then diluted in filtered seawater to obtain the test solutions. DMSO concentration in test solutions was always 0.1%. Four well replicates were used per condition with five larvae per well. Two negative controls, one with ultra-pure water and the other with DMSO 0.1% were included in all bioassays, as well as a positive control with 5 μM CuSO4 (a potent antifouling agent). Anti-settlement bioactivity was determined by the presence/absence of fixed byssal threads produced by each individual larvae for all the conditions tested. […] Chi-square Pearsons goodness-of-fit test was applied to data in order to determine EC50. Significance was considered at p < 0.01 for all analyses, and 95% lower and upper confidence limits [95% LCL; UCL] were presented. Therapeutic ratio (LC50/EC50) was used to evaluate the effectiveness vs. toxicity of compounds [19, 21].

[6] = system: M. galloprovincialis plantigrade larvae; experiment: as above; assay type: in vivo; details: 95% LCL, UCL in brackets; for EC50: Mytilus galloprovincialis, 15 h, read-out: EC50 [Conf. limits] larval settlement
Procedure: as §6

C. marina [7] = experiment: Bacterial growth inhibition assay (OD600nm); assay type: cell-based, Cobetia marina; details: 31.25 µg/mL
Description: as §1, §2, §3

M. hydrocarbonoclasticus [8] = experiment: Bacterial growth inhibition assay (OD600nm); assay type: cell-based, Marinobacter hydrocarbonoclasticus; details: 31.25 µg/mL
Procedure: As a first screening approach, liquid cultures of M. hydrocarbonoclasticus, and C. marina in a 96-well format were analyzed for bacterial growth inhibition by percent decrease in OD600 after incubation with napyradiomycins (1–12) at 31.25 µg/mL.
as §1
The antibacterial activity of the napyradiomycins (1–12) was assessed in 96-well polystyrene flat bottom microplates (Nunclon Delta Surface, Thermo Scientific, Roskilde, Denmark) following previously reported procedures. For initial screening, bacterial overnight cultures were diluted to an optical density (OD600nm) of 0.2 and incubated statically at 28 °C (M. hydrocarbonoclasticus, C. marina), 30 °C (P. inhibens, P. batsensis) or 37 °C (M. luteus) in a 96-well microplate in the presence or absence of 31.25 µg/mL of the napyradiomycins, solubilized in DMSO. After 24 h (M. hydrocarbonoclasticus, C. marina) or 48 h (P. batsensis, P. inhibens, M. luteus) incubation, the OD600nm was determined (Molecular Devices, Spectra Max 190). […] The percentage of growth inhibition was calculated as the amount of growth relative to that of the bacterial species without added compounds (with the same amount of DMSO added). CuSO4 (5 μM), a potent antifouling agent used in antifouling paints, was used as reference.
as §3

Work on `C=C(C)C(O)CC/C(C)=C/C[C@@]12OC(C)(C)[C@H](Cl)C[C@]1(Cl)C(=O)c1c(O)cc(O)cc1C2=O` (stereo partly drawn) [Napyradiomycin 4, napyradiomycin A2] yielded an inhibition at 0.98 µg/mL (M. luteus [1]; Micrococcus luteus, 0.98 µg/mL) of 38.7 ± 1.9%, an inhibition at 1.95 µg/mL (M. luteus [1]; Micrococcus luteus, 1.95 µg/mL) of 51.7 ± 4.5% and an inhibition at 3.91 µg/mL (M. luteus [1]; Micrococcus luteus, 3.91 µg/mL) of 61.2 ± 3.7%. It also gave an inhibition at 7.81 µg/mL (M. luteus [1]; Micrococcus luteus, 7.81 µg/mL) of 53.3 ± 5.7%, an inhibition at 15.6 µg/mL (M. luteus [1]; Micrococcus luteus, 15.60 µg/mL) of 60.1 ± 8.5% and an inhibition at 31.25 µg/mL (M. luteus [1]; Micrococcus luteus, 31.25 µg/mL) of 72.5 ± 7.7%. The “% growth inhibition M. luteus” value (M. luteus [1]; all tested concentrations) was “approximately 50%”, the inhibition at 0.98 µg/mL (M. hydrocarbonoclasticus [2]; 0.98 µg/mL, read-out: % inhibition of biofilm formation M. hydro.) was 56.1 ± 5.6% and the inhibition at 1.95 µg/mL (M. hydrocarbonoclasticus [2]; 1.95 µg/mL, read-out: % inhibition of biofilm formation M. hydro.) was 78.1 ± 3%. It also gave an inhibition at 3.91 µg/mL (M. hydrocarbonoclasticus [2]; 3.91 µg/mL, read-out: % inhibition of biofilm formation M. hydro.) of 84.5 ± 2%, an inhibition at 7.81 µg/mL (M. hydrocarbonoclasticus [2]; 7.81 µg/mL, read-out: % inhibition of biofilm formation M. hydro.) of 67 ± 5.5% and an inhibition at 15.6 µg/mL (M. hydrocarbonoclasticus [2]; 15.6 µg/mL, read-out: % inhibition of biofilm formation M. hydro.) of 82.3 ± 1.5%. For the same compound, the inhibition at 31.25 µg/mL (M. hydrocarbonoclasticus [2]) was 56.9 ± 5.7%, the “% Biofilm Inhibition ± SEM C. marina” value (C. marina [3]) was “N.I” and the “% inhibition of biofilm formation M. luteus” value (M. luteus [4]; 0.98 µg/mL) was 93.8 ± 4.1%. For the same compound, the inhibition at 0.98 µg/mL (M. luteus [4]; Micrococcus luteus, 0.98 µg/mL, read-out: % inhibition of biofilm formation M. luteus) was over 90%, the inhibition at 1.95 µg/mL (M. luteus [4]; Micrococcus luteus, 1.95 µg/mL, read-out: % inhibition of biofilm formation M. luteus) was 91.7 ± 0.9% and the inhibition at 3.91 µg/mL (M. luteus [4]; Micrococcus luteus, 3.91 µg/mL, read-out: % inhibition of biofilm formation M. luteus) was 100 ± 0.4%. For the same compound, the inhibition at 7.81 µg/mL (M. luteus [4]; Micrococcus luteus, 7.81 µg/mL, read-out: % inhibition of biofilm formation M. luteus) was 86.7 ± 3%, the inhibition at 15.6 µg/mL (M. luteus [4]; Micrococcus luteus, 15.6 µg/mL, read-out: % inhibition of biofilm formation M. luteus) was 88.8 ± 4.2% and the inhibition at 31.25 µg/mL (M. luteus [4]; Micrococcus luteus, 31.25 µg/mL, read-out: % Biofilm Inhibition ± SEM M. luteus) was 97 ± 1.2%. For the same compound, the inhibition at 31.25 µg/mL (P. batsensis) was 13.4 ± 0.8%, the “% Biofilm Inhibition ± SEM P. inhibens” value (P. inhibens) was “N.I” and the LC50 at 15 h [5] was over 12 µg/mL. For the same compound, the EC50 [6] was 6.34 µg/mL (≈ 12.7 µM).
With `Cc1c(O)cc2c(c1O)C(=O)C1(Cl)CC(Cl)C(C)(C)OC1(CC1C(C)(O)CCC(Cl)C1(C)C)C2=O` (stereo not drawn) [Napyradiomycin 10, napyradiomycin A80915C] the “% growth inhibition C. marina” value (C. marina [7]) was “did not inhibit growth”, the “% growth inhibition M. hydrocarbonoclasticus” value (M. hydrocarbonoclasticus [8]) was “did not inhibit growth” and the inhibition at 31.25 µg/mL (M. hydrocarbonoclasticus [2]) was 25.1 ± 10.2%. The “% Biofilm Inhibition ± SEM C. marina” value (C. marina [3]) was “N.I”, the LC50 at 15 h [5] was over 12 µg/mL and the “EC50 [Conf. limits] larval settlement” value [6] was 0.102 [0.072; 0.140] µg/mL. The EC50 [6] was 0.1 µg/mL (≈ 0.183 µM).
With `C=C1CCC(Cl)C(C)(C)C1C[C@@]12OC(C)(C)[C@H](Cl)C=C1C(=O)c1c(cc(O)c(C)c1O)C2=O` (stereo partly drawn) [Napyradiomycin 12, 4-dehydro-4a-dechloro-napyradiomycin A80915A] the “% growth inhibition C. marina” value (C. marina [7]) was “did not inhibit growth”, the “% growth inhibition M. hydrocarbonoclasticus” value (M. hydrocarbonoclasticus [8]) was “did not inhibit growth” and the inhibition at 31.25 µg/mL (M. hydrocarbonoclasticus [2]) was 33.7 ± 5.1%. The “% Biofilm Inhibition ± SEM C. marina” value (C. marina [3]) was “N.I”, the LC50 at 15 h [5] was over 12 µg/mL and the “EC50 [Conf. limits] larval settlement” value [6] was 0.947 [0.586; 1.473] µg/mL. It also gave an EC50 [6] of 0.95 µg/mL (≈ 1.93 µM).
